Source: US20100234238A1, “METHOD FOR PROFILING KINASE INHIBITORS” (Janssen Pharmaceutica N V, priority 2006, published 2010)

Experiments:
[1] = test system: tyrosine kinase activity in cell line lysates; test: Peptide array profiling of 9 cell line lysates in the presence of MTKI or Tarceva; type: biochemical; conditions: GTL16 lysates; 5 μM
Protocol: To test whether other EGFR inhibitors, related to MTKI, such as Tarceva (erlotinib; OSI pharmaceuticals), are also amenable to this response prediction methodology, 9 cell lines were profiled in the presence of MTKI, or Tarceva (5 μM in both cases). […] The value of the previously derived MTKI prediction peptides is illustrated in Tables 6A to C. Based on these peptides also response to Tarceva can be predicted with identical accuracy as for MTKI (and with the same false predictions, in casu H2009 and MOLT4).

Ron kinase = Ron kinase (Homo sapiens, UniProt Q04912); test: Purified Ron kinase inhibition; type: biochemical; conditions: 1 μM
Text: (§1) As shown in Example 7, clear-cut differences in peptide phosphorylation inhibition by 605 could be identified in the responder lysates versus non-responder lysates. Note that the cMet signature peptide set features two peptides derived from Ron, the closest homologue to cMet. […] The 605 signature peptides show no overlap at all with the MTKI signature peptides set, consistent with the absence of any overlap in kinase specificity between MTKI and 605.

[2] = test system: cMet kinase activity in cell lysates; test: 140-tyrosine peptide array profiling of cell lysates with cMET inhibitor 605; type: biochemical; conditions: responder cell lysates; 1 μM compound
Text: To examine whether the currently available 140-tyrosine peptide arrays from Pamgene will also detect other kinase activities then those described above, another compound was profiled using the same methodology: this is an exquisitely selective inhibitor of the cMET receptor tyrosine kinase (see US2007 0203136 A1) and with formula: […]
as §1

[3] = test system: HGF-induced colony formation; test: HGF-induced colony formation (responsiveness to 605); type: cell-based; parameters: key: R = Responder to cMET; NR = Non-Responder to cMET

Chain of Ron kinase (Q04912 25-1400): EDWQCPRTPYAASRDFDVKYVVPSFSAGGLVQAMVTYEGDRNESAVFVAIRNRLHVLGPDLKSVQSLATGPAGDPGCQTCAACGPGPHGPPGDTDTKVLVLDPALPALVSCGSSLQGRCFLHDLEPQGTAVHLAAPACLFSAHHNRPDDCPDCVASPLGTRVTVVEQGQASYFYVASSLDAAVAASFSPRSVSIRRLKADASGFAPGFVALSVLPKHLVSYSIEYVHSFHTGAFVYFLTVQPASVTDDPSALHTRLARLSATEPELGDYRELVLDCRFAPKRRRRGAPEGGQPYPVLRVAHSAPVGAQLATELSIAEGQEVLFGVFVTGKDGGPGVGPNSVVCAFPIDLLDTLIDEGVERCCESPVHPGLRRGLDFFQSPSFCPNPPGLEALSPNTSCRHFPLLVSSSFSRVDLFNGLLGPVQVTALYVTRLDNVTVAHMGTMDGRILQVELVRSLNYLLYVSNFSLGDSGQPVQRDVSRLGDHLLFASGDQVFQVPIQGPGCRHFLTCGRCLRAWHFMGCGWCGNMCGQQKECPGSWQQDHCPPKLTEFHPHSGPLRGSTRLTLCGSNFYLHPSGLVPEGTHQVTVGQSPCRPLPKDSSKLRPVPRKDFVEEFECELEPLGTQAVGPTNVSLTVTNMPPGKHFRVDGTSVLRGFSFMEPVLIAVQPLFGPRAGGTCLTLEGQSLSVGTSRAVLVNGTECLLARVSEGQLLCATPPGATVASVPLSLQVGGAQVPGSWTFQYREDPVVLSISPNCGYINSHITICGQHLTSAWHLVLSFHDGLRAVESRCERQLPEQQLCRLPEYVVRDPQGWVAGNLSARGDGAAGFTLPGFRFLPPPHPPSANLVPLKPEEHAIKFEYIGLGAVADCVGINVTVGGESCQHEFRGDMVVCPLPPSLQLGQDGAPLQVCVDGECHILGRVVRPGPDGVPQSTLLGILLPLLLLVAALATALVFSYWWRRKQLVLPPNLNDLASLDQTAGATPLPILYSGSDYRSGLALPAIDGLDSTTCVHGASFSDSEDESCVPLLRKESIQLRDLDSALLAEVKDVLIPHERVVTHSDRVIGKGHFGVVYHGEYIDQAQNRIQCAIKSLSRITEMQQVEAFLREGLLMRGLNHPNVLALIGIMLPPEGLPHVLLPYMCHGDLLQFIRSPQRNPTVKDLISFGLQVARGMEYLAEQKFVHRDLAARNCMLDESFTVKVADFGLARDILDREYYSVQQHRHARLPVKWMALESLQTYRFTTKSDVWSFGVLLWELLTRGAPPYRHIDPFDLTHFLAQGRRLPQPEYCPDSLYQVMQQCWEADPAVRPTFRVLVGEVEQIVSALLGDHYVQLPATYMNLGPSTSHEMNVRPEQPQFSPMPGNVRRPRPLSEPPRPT

| Compound | activity in lysate inhibition profile compared to MTKI [1] | inhibition of purified Ron kinase (Ron kinase) | inhibition of peptide phosphorylation [2] | response status ([3]; A549 cell line) | response status ([3]; Caco2 cell line) | response status ([3]; H322 cell line) | response status ([3]; H441 cell line) | response status ([3]; H1792 cell line) | response status ([3]; H2106 cell line) | response status ([3]; H2122 cell line) | response status ([3]; Kato2 cell line) | response status ([3]; MKN45 cell line) | response status ([3]; N87 cell line) | response status ([3]; SNU5 cell line) | response status ([3]; SNU484 cell line) | response status ([3]; WIDR cell line) | response status ([3]; YKG cell line) |
| --- | --- | --- | --- | --- | --- | --- | --- | --- | --- | --- | --- | --- | --- | --- | --- | --- | --- |
| C#Cc1cccc(Nc2ncnc3cc(OCCOC)c(OCCOC)cc23)c1 [Tarceva, reference compound] | additional activity |  |  |  |  |  |  |  |  |  |  |  |  |  |  |  |  |
| Cn1cc(-c2ccc3nnc(C(F)(F)c4ccc5ncccc5c4)n3n2)cn1 [compound 605] |  | does not inhibit | significant inhibition | NR | NR | NR | R | R | NR | NR | R | R | NR | R | NR | R | NR |
